According to US10947242B2, “[1,2,4]triazolo[1,5and#8208;A]pyrimidine compounds as PDE2 inhibitors” (Janssen Pharmaceutica NV, priority 2016, dated 2021):
Where two headings read alike, the source gives them in different places.

How the values were obtained:
Format in all cases: biochemical
[1] = target: T1, Human recombinant PDE2A (hPDE2A) (Homo sapiens, UniProt O00408); experiment: In vitro assay PDE2A (SPA, 3H-cGMP hydrolysis); conditions: for IC50: read-out: hPDE2A pIC50 (converted); for Emax: read-out: hPDE2A Emax
T1 construct: His tag (inferred from metal chelate purification); made in house; host or cells: Sf9 insect cells (baculovirus)

[2] = target: T2, Human recombinant PDE3A (hPDE3A) (Homo sapiens, UniProt Q14432); experiment: In vitro assay PDE3A (SPA, 3H-cAMP hydrolysis); conditions: for IC50: hPDE3B pIC50, read-out: pIC50 (converted); for Emax: read-out: hPDE3B Emax, read-out: Emax;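 on all read-outs here: the method names PDE3A and the table heading PDE3B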
T2 construct: purchased Scottish Biomedical; host or cells: Sf9 insect cells
Protocol: Human recombinant PDE3A (hPDE3A) was supplied as a partially purified insect cell lysate by Scottish Biomedical, it was cloned from human brain and expressed in Sf9 cells. Tested compounds were dissolved and diluted in 100% DMSO to a concentration 100 fold of the final concentration in the assay. Compound dilutions (0.4 μl) were added in 384 well plates to 20 μl of incubation buffer (50 mM Tris pH 7.8, 8.3 mM MgCl2, 1.7 mM EGTA). 10 μl of hPDE3A enzyme in incubation buffer was added and the reaction was started by addition of 10 μl substrate to a final concentration of 0.4 μM cAMP and 2.4 μCi/ml [^3H]-cAMP. The reaction was incubated for 60 min at room temperature. […] After sedimentation of the beads during 30 min the radioactivity was measured in a Perkin Elmer Topcount scintillation counter and results were expressed as cpm. For blanc values the enzyme was omitted from the reaction and replaced by incubation buffer. Control values were obtained by addition of a final concentration of 1% DMSO instead of compound.

[3] = target: T3, Human recombinant PDE10A (hPDE10A) (Homo sapiens, UniProt Q9Y233); experiment: In vitro assay PDE10A, human clone (SPA, 3H-cAMP hydrolysis)
T3 construct: His tag (inferred from metal chelate purification); made in house; host or cells: Sf9 insect cells (baculovirus)
Protocol: Rat recombinant PDE10A (rPDE10A2) was expressed in Sf9 cells using a recombinant rPDE10A baculovirus construct. […] Tested compounds were dissolved and diluted in 100% DMSO to a concentration 100 fold of the final concentration in the assay. Human recombinant PDE10A ([…]) was expressed in Sf9 cells using a recombinant hPDE10A baculovirus that was made and amplified in house. […] Compound dilutions (0.4 μl) were added in 384 well plates to 20 μl of incubation buffer (50 mM Tris pH 7.8, 8.3 mM MgCl2, 1.7 mM EGTA). 10 μl of rPDE10A or hPDE10A enzyme in incubation buffer was added and the reaction was started by addition of 10 μl substrate to a final concentration of 60 nM cAMP and 0.008 μCi ^3H-cAMP. The reaction was incubated for 60 minutes at room temperature. […] After sedimentation of the beads during 30 minutes the radioactivity was measured in a Perkin Elmer Topcount scintillation counter and results were expressed as cpm. For blanc values the enzyme was omitted from the reaction and replaced by incubation buffer. Control values were obtained by addition of a final concentration of 1% DMSO instead of compound.

[4] = human recombinant PDE2A, 10 μM cGMP substrate
[5] = human clone (h), default, read-out: hPDE10A2 Emax
[6] = human clone (h), default, read-out: hPDE10A2 pIC50 (converted)
[7] = human clone by default (no (r) mark), read-out: hPDE10A2 or rPDE10A2 Emax
[8] = human clone by default (no (r) mark), read-out: hPDE10A2 or rPDE10A2 pIC50 (converted)

T2 sequence (Q14432 whole entry): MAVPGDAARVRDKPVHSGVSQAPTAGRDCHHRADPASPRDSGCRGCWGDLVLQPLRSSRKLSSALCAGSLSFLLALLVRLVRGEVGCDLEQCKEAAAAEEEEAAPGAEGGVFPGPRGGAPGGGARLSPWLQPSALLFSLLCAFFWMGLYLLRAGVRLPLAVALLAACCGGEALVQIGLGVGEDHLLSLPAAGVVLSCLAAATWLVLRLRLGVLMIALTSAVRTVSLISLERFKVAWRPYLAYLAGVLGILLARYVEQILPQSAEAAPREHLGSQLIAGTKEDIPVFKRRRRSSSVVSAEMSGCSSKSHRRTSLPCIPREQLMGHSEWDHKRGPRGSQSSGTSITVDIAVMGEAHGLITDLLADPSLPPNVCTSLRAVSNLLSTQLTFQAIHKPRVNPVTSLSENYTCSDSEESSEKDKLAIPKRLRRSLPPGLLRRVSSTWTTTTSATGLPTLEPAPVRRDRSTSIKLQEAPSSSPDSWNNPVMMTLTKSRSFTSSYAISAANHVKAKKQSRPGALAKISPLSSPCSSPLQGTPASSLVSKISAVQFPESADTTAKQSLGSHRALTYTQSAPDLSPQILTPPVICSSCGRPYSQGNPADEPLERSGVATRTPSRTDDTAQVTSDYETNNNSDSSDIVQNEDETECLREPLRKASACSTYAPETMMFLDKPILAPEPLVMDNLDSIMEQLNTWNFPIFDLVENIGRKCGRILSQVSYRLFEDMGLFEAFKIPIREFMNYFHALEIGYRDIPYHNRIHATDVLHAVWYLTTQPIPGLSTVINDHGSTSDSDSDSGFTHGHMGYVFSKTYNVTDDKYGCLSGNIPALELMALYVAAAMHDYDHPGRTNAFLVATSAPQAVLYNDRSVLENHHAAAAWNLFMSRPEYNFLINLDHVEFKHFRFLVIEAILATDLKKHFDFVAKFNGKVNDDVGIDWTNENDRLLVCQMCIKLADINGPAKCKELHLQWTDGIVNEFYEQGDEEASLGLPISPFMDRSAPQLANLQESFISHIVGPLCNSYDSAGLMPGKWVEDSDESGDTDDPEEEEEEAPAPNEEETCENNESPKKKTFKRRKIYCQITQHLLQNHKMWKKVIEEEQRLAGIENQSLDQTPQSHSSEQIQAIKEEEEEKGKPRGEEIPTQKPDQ
T1 sequence (O00408 whole entry): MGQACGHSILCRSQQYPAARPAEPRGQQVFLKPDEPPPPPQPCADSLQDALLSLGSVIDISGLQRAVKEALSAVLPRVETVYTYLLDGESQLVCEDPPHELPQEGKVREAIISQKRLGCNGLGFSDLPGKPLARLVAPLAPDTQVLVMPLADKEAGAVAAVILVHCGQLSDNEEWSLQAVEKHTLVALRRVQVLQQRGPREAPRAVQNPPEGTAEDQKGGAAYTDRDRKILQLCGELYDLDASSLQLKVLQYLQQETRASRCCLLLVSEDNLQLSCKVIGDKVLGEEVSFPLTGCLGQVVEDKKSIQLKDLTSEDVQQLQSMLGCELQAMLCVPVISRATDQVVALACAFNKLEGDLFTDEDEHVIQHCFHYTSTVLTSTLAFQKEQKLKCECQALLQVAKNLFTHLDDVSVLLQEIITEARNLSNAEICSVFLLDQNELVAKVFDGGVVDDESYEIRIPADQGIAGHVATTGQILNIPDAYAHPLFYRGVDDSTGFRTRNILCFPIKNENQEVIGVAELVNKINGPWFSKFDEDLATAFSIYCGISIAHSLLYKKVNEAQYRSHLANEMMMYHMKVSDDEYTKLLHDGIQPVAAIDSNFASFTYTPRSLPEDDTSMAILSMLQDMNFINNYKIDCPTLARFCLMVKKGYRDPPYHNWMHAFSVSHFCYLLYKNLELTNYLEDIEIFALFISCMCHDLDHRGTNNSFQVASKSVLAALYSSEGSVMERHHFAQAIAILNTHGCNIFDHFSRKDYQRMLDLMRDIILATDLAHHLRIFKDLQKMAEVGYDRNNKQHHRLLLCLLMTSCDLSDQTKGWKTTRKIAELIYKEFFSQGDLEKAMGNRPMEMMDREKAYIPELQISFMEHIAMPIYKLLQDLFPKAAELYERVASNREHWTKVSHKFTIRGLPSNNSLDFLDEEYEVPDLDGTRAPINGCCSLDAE
T3 sequence (Q9Y233 267-1055): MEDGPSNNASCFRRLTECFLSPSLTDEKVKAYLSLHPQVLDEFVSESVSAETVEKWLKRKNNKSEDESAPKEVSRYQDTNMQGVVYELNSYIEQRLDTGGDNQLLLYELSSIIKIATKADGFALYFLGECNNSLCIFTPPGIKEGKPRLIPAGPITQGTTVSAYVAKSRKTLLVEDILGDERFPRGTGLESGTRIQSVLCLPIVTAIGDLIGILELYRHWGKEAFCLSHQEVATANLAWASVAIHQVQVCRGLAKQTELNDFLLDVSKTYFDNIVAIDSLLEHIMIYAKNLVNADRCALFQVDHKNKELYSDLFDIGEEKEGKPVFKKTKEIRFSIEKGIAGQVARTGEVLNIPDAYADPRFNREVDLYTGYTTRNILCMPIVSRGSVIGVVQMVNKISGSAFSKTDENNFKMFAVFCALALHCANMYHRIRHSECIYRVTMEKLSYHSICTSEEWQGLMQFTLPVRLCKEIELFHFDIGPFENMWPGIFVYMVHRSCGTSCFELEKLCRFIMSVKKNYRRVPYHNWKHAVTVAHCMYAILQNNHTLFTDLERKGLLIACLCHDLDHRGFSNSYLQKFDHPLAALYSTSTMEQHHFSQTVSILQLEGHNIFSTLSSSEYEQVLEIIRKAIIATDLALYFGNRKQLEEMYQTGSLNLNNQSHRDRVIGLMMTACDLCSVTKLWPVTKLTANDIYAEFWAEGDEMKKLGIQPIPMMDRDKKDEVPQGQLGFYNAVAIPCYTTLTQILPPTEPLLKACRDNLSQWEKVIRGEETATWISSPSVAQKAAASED

| IC50 [1, 4] | Emax ([1]; human recombinant PDE2A) | Emax [1] | IC50 [1] | IC50 [2] | Emax [2] | Emax [3, 5] | IC50 [3, 6] | SMILES | Emax [3, 7] | IC50 [3, 8] |
| --- | --- | --- | --- | --- | --- | --- | --- | --- | --- | --- |
| 0.661 nM | 101% | 101% | 0.661 nM | 269 nM | 99% | 100% | 16.2 nM | Cc1csc2ccc(C(=O)N3CC[C@@H](C)[C@H](c4cc(C(F)F)nc5ncnn45)C3)nc12 [Compound 100] |  |  |
|  |  | 92% | 676 nM | > 10000 nM | 12% | 54% | 9330 nM | Cc1ncc(C(=O)N2CC[C@@H](C)[C@H](c3cc(C(F)F)nc4ncnn34)C2)cn1 [Compound 244] | 54% | 9330 nM |
| 0.871 nM | 100% | 100% | 0.871 nM | 129 nM | 100% | 100% | 81.3 nM | C[C@@H]1CCN(C(=O)c2ccc(C3CC3)c(C3CC3)c2)C[C@H]1c1cc(C(F)F)nc2ncnn12 [Compound 226] | 100% | 81.3 nM |
| 0.603 nM | 100% | 100% | 0.603 nM | 603 nM | 94% | 98% | 39.8 nM | C[C@@H]1CCN(C(=O)c2cc(-c3ccco3)nn2C)C[C@H]1c1cc(C(F)F)nc2ncnn12 [Compound 98] |  |  |
|  |  | 100% | 105 nM | 10500 nM | 47% | 74% | 3310 nM | Cc1nc(C)c(C(=O)N2CC[C@@H](C)[C@H](c3cc(C(F)F)nc4ncnn34)C2)s1 [Compound 264] | 74% | 3310 nM |
|  |  | 99% | 132 nM | > 10000 nM | 28% | 64% | 4900 nM | C[C@@H]1CCN(C(=O)c2cc(F)ccn2)C[C@H]1c1cc(C(F)F)nc2ncnn12 [Compound 250] | 64% | 4900 nM |
| 93.3 nM | 98% | 98% | 93.3 nM | > 10000 nM | 32% | 81% | 2240 nM | C[C@@H]1CCN(C(=O)c2cc3n(n2)CCO3)C[C@H]1c1cc(C(F)F)nc2ncnn12 [Compound 166] |  |  |
| 0.209 nM | 101% | 101% | 0.209 nM | 389 nM | 97% | 99% | 3.98 nM | C[C@@H]1CCN(C(=O)c2ccc3nc(N)sc3c2)C[C@H]1c1cc(C(F)F)nc2ncnn12 [Compound 88] |  |  |
| 38.9 nM | 99% | 99% | 38.9 nM | 5130 nM | 66% | 83% | 1820 nM | C[C@@H]1CCN(C(=O)c2c(F)cccc2F)C[C@H]1c1cc(C(F)F)nc2ncnn12 [Compound 149] |  |  |
| 123 nM | 98% | 98% | 123 nM | > 10000 nM | 32% | 67% | 5500 nM | C[C@@H]1CCN(C(=O)c2ccncc2Cl)C[C@H]1c1cc(C(F)F)nc2ncnn12 [Compound 235] | 67% | 5500 nM |

The next lines start with the molecule.

| SMILES | IC50 [1, 4] | Emax ([1]; human recombinant PDE2A) | Emax [1] | IC50 [1] | IC50 [2] | Emax [2] | Emax [3, 5] | IC50 [3, 6] | Emax [3, 7] | IC50 [3, 8] |
| --- | --- | --- | --- | --- | --- | --- | --- | --- | --- | --- |
| C[C@@H]1CCN(C(=O)c2cccc(OC(F)(F)F)c2F)C[C@H]1c1cc(C(F)F)nc2ncnn12 [Compound 241] | 20.9 nM | 97% | 97% | 20.9 nM | 1740 nM | 88% | 94% | 269 nM | 94% | 269 nM |
| Cc1cc([C@@H]2CN(C(=O)c3cc4c(nc3Cl)CCCC4)CC[C@H]2C)n2ncnc2n1 [Compound 12] | 21.4 nM | 101% | 101% | 21.4 nM | 1100 nM | 94% | 97% | 363 nM |  |  |
| Cc1cc(C(=O)N2[C@H]3CC[C@H](c4cc(C(F)F)nc5ncnn45)[C@@H]2CC3)c(C)s1 [Compound 358] |  |  | 102% | 26.9 nM | > 10000 nM | 40% |  |  | 58% | 7940 nM |
| O=C(c1cccc2ccccc12)N1[C@H]2CC[C@H](c3cc(C(F)F)nc4ncnn34)[C@@H]1CC2 [Compound 320] |  |  | 100% | 53.7 nM | > 10000 nM | 47% |  |  | 62% | 7080 nM |
| Cc1cc([C@@H]2CN(C(=O)c3cccc4nc(C)oc34)CC[C@H]2C)n2ncnc2n1 [Compound 19] | 10.5 nM | 101% | 101% | 10.5 nM | 3090 nM | 79% | 96% | 129 nM |  |  |
| COc1ccc2c(c1)cc(C(=O)N1CC[C@@H](C)[C@H](c3cc(C(F)F)nc4ncnn34)C1)n2C [Compound 172] | 4.57 nM | 101% | 101% | 4.57 nM | 269 nM | 98% | 100% | 32.4 nM |  |  |
| O=C(c1ccc(C(F)(F)F)cc1)N1[C@H]2CC[C@H](c3cc(C(F)F)nc4ncnn34)[C@@H]1CC2 [Compound 340] |  |  | 100% | 70.8 nM | 4270 nM | 69% |  |  | 72% | 3310 nM |
| Cc1c(C(=O)N2[C@H]3CC[C@@H]2[C@H](c2cc(C(F)F)nc4ncnn24)CC3)oc2ccccc12 [Compound 140] | 29.5 nM | 100% | 100% | 29.5 nM | 8910 nM | 57% | 83% | 3090 nM |  |  |
| Cc1nc2ccncc2cc1C(=O)N1CC[C@@H](C)[C@H](c2cc(C(F)F)nc3ncnn23)C1 [Compound 151] |  |  | 100% | 40.7 nM | > 10000 nM | 11% | 85% | 1380 nM |  |  |
| COc1ccc(C(C)(C)C)cc1C(=O)N1CC[C@@H](C)[C@H](c2cc(C(F)F)nc3ncnn23)C1 [Compound 165] | 93.3 nM | 100% | 100% | 93.3 nM | > 10000 nM | 36% | 78% | 3470 nM |  |  |
| COc1c(F)cc(C(=O)N2CC[C@@H](C)[C@H](c3cc(C(F)F)nc4ncnn34)C2)cc1F [Compound 128] | 2.29 nM | 100% | 100% | 2.29 nM | 933 nM | 90% | 98% | 155 nM |  |  |
| C[C@H]1CCN(C(=O)c2ccc3ncsc3c2)C[C@]1(F)c1cc(C(F)F)nc2ncnn12 [Compound 34] | 1950 nM | 88% | 88% | 1950 nM | > 10000 nM | 31% | 28% | > 10000 nM |  |  |
| C/C(=C\c1ccc(F)cc1)C(=O)N1[C@H]2CC[C@H](c3cc(C(F)F)nc4ncnn34)[C@@H]1CC2 [Compound 370] |  |  | 100% | 33.9 nM | 1450 nM | 87% |  |  | 94% | 661 nM |
| O=C(c1cc2n(n1)CCO2)N1[C@H]2CC[C@H](c3cc(C(F)F)nc4ncnn34)[C@@H]1CC2 [Compound 367] |  |  | 97% | 437 nM | > 10000 nM | 21% |  |  | 44% | > 10000 nM |
| Cc1cc([C@@H]2CN(C(=O)c3nc4ccccc4o3)CC[C@H]2C)n2ncnc2n1 [Compound 21] | 4.57 nM | 99% | 99% | 4.57 nM | 1510 nM | 89% | 97% | 132 nM |  |  |
| CN1CCOc2cc(C(=O)N3[C@H]4CC[C@H](c5cc(C(F)F)nc6ncnn56)[C@@H]3CC4)ccc21 [Compound 378] |  |  | 99% | 1.7 nM | 759 nM | 96% |  |  | 97% | 407 nM |
